ChEMBL document CHEMBL1221187, “Histone deacetylase inhibitors reverse gene silencing in Friedreich's ataxia” (Nat Chem Biol, 2006)
Calls of active or inactive are those of the source. The calls are words filed in the database; no cut-off is given here.

Columns and labels:
GM15850 [1] = experiment: Increase in FXN mRNA expression in human GM15850 cells at 5 uM after 12 hrs by qRT-PCR analysis relative to control; assay type: functional
[2] = Cytotoxicity against human GM15850 cells at 5 uM after 12 hrs by trypan blue exclusion assay; assay type: cell-based; settings: gm15850, 12 h
Histone deacetylase = experiment: Inhibition of HDAC in human HeLa cell extract by fluorescence plate reader assay; assay type: cell-free
GM15850 [3] = experiment: Increase in FXN mRNA expression in human GM15850 cells at 5 uM after 96 hrs by qRT-PCR analysis relative to control; assay type: functional
[4] = Cytotoxicity against human GM15850 cells at 5 uM after 96 hrs by trypan blue exclusion assay; assay type: cell-based; settings: gm15850, 96 h
GM15850 [5] = experiment: Increase in frataxin protein level in human GM15850 cells at 5 uM after 4 days by SDS-PAGE relative to control; assay type: functional
Lymphocyte [6] = experiment: Increase in FXN mRNA expression in lymphocytes isolated from patient with Friedreich's ataxia at 2.5 uM after 48 hrs by qRT-PCR analysis; assay type: functional, Homo sapiens
Lymphocyte [7] = experiment: Effect on FXN mRNA expression in healthy human lymphocytes at 2.5 uM after 48 hrs by qRT-PCR analysis; assay type: functional, cell-based
[8] = Cytotoxicity against lymphocytes isolated from patient with Friedreich's ataxia at 2.5 to 5 uM after 48 hrs by trypan blue exclusion assay; assay type: cell-based; settings: human, lymphocyte
Lymphocyte [9] = experiment: Increase in FXN mRNA expression in lymphocytes isolated from patient with Friedreich's ataxia at 5 uM after 48 hrs by qRT-PCR analysis; assay type: functional, Homo sapiens
Lymphocyte [10] = experiment: Increase in FXN mRNA expression in lymphocytes isolated from patient with Friedreich's ataxia at 5 uM after 48 hrs by qRT-PCR analysis relative to control; assay type: functional, Homo sapiens
Lymphocyte [11] = experiment: Increase in FXN mRNA expression in healthy human lymphocytes at 5 uM after 48 hrs by qRT-PCR analysis; assay type: functional
[12] = target: T1, Histone deacetylase (Homo sapiens) (UniProt Q13547+O15379+Q9UBN7+Q92769+Q9UQL6+Q8WUI4+Q9BY41+Q96DB2+P56524+Q9UKV0+Q969S8); experiment: Inhibition of HDAC in human GM15850 cells assessed as increase in total acetylated histone level at 400 uM after 12 hrs by Western blot analysis; assay type: cell-based
GM15850 [13] = experiment: Increase in FXN mRNA expression in human GM15850 cells at 10 uM after 96 hrs by qRT-PCR analysis relative to control; assay type: functional
Lymphocyte [14] = experiment: Increase in FXN mRNA expression in lymphocytes isolated from patient with Friedreich's ataxia at 10 uM after 48 hrs by qRT-PCR analysis; assay type: functional, cell-based; settings: Homo sapiens
GM15850 [15] = experiment: Effect on FXN mRNA expression in human GM15850 cells at 5 uM after 12 hrs by qRT-PCR analysis; assay type: functional, cell-based
[16] = Decrease in FXN mRNA expression in human GM15850 cells at 5 uM after 12 hrs by qRT-PCR analysis; assay type: functional, cell-based
Lymphocyte [17] = experiment: Increase in FXN mRNA expression in lymphocytes isolated from patient with Friedreich's ataxia at 2.5 to 7.5 uM after 48 hrs by qRT-PCR analysis; assay type: functional, cell-based; settings: Homo sapiens
GM15850 [18] = experiment: Increase in frataxin protein level in human GM15850 cells at 2.5 uM after 4 days by SDS-PAGE relative to control; assay type: functional
Lymphocyte [19] = experiment: Increase in FXN mRNA expression in lymphocytes isolated from patient with Friedreich's ataxia at 5 uM after 48 hrs by qRT-PCR analysis relative to mRNA level in healthy human lymphocytes; assay type: functional
Lymphocyte [20] = experiment: Increase in FXN mRNA expression in lymphocytes isolated from patient with Friedreich's ataxia at 10 uM after 48 hrs by qRT-PCR analysis relative to mRNA level in healthy human lymphocytes; assay type: functional
[21] = target: T1, Histone deacetylase (Homo sapiens); experiment: Inhibition of HDAC in human GM15850 cells assessed as increase in histone H3 lysine 14 acetylation of FXN gene at 5 uM after 96 hrs by chromatin immunoprecipitation assay; assay type: cell-based
[22] = target: T1, Histone deacetylase (Homo sapiens); experiment: Inhibition of HDAC in human GM15850 cells assessed as increase in histone H4 lysine 5 acetylation of FXN gene at 5 uM after 96 hrs by chromatin immunoprecipitation assay; assay type: cell-based
[23] = target: T1, Histone deacetylase (Homo sapiens); experiment: Inhibition of HDAC in human GM15850 cells assessed as increase in histone H4 lysine 12 acetylation of FXN gene at 5 uM after 96 hrs by chromatin immunoprecipitation assay; assay type: cell-based
[24] = target: T1, Histone deacetylase (Homo sapiens); experiment: Inhibition of HDAC in human GM15850 cells assessed as increase in histone H3 lysine 9 acetylation of FXN gene at 5 uM after 96 hrs by chromatin immunoprecipitation assay; assay type: cell-based
[25] = target: T1, Histone deacetylase (Homo sapiens); experiment: Inhibition of HDAC in human GM15850 cells assessed as increase in histone H4 lysine 8 acetylation of FXN gene at 5 uM after 96 hrs by chromatin immunoprecipitation assay; assay type: cell-based
[26] = target: T1, Histone deacetylase (Homo sapiens); experiment: Inhibition of HDAC in human GM15850 cells assessed as increase in histone H4 lysine 16 acetylation of FXN gene at 5 uM after 96 hrs by chromatin immunoprecipitation assay; assay type: cell-based

Row | Compound | IC50 (Histone deacetylase) [µM] | fold change (FC) (GM15850 [3]) | Activity [4] | further results
1 | Nc1ccccc1NC(=O)CCCCCCC(=O)Nc1ccccc1 | 87 | 1.4 | Non-toxic | fold change (FC) (GM15850 [1]): 2; Activity [2]: Non-toxic; fold change (FC) (GM15850 [5]): 3; Activity (Lymphocyte [6]): 33%; Activity (Lymphocyte [7]): inactive; Activity [8]: Non-toxic; Activity (Lymphocyte [9]): 80%; fold change (FC) (Lymphocyte [10]): 1.8; Activity (Lymphocyte [11]): inactive
2 | CCCC(CCC)C(=O)O [VALPROIC ACID] | – | – | Non-toxic | inhibition [12]: Active
3 | O=C(CCCCCC(=O)Nc1cnc2ccccc2c1)Nc1ccccc1 | 84 | 2.5 | Non-toxic | –
4 | Nc1ccccc1NC(=O)CCCCCC(=O)Nc1ccccc1N | 14 | 3.1 | Non-toxic | fold change (FC) (GM15850 [13]): 3.5; Activity (Lymphocyte [14]): Active
5 | COc1ccccc1NC(=O)CCCCCC(=O)Nc1ccccc1 | 54 | 2.3 | Non-toxic | –
6 | Nc1cccc(NC(=O)CCCCCC(=O)Nc2ccccc2)c1 | 500 | 1.5 | Non-toxic | –
7 | Nc1cccc(NC(=O)CCCCCCC(=O)Nc2ccccc2)c1 | 85 | 2.1 | Non-toxic | –
8 | O=C(CCCCCC(=O)Nc1cccc2cccnc12)Nc1ccccc1 | 17 | 3 | Non-toxic | –
9 | O=C(CCCCCCC(=O)Nc1ccccc1)NO [VORINOSTAT] | – | – | Toxic | Activity (GM15850 [15]): inactive
10 | COc1ccc(NC(=O)CCCCCC(=O)Nc2ccccc2)cc1 | 438 | 2.5 | Non-toxic | –
11 | Nc1ccccc1NC(=O)CCCCCC(=O)Nc1ccccn1 | 91 | 2.4 | Non-toxic | Activity (Lymphocyte [14]): Active
12 | O=C(CCCCCC(=O)Nc1ccccc1)Nc1ccccc1 | – | – | Non-toxic | –
13 | CC(/C=C/C(=O)NO)=C\[C@@H](C)C(=O)c1ccc(N(C)C)cc1 [TRICHOSTATIN] | – | – | Toxic | –
14 | O=C(CCCCCCC(=O)NO)NO [SUBEROHYDROXAMIC ACID] | – | – | Non-toxic | inhibition [16]: 50%
15 | Nc1ccccc1NC(=O)CCCCC(=O)Nc1ccccc1 | 238 | 1.4 | Non-toxic | –
16 | O=C(CCCCCCC(=O)Nc1ccccn1)Nc1ccccc1 | 99 | 2 | Non-toxic | Activity (Lymphocyte [14]): inactive
17 | Nc1ccc(NC(=O)CCCCCCC(=O)Nc2ccccc2)cc1 | 186 | 2 | Non-toxic | –
18 | COc1cccc(NC(=O)CCCCCC(=O)Nc2ccccc2)c1 | > 1 | 1.8 | Non-toxic | –
19 | Nc1ccc(NC(=O)CCCCCC(=O)Nc2ccccc2)cc1 | 123 | 2.6 | Non-toxic | Activity (Lymphocyte [14]): inactive
20 | COc1ccc(NC(=O)CCCCCC(=O)Nc2ccccc2)c(OC)c1 | 387 | 1.5 | Non-toxic | –
21 | Nc1ccccc1NC(=O)CCCCCC(=O)Nc1ccccc1 | 78 | 2.5 | Non-toxic | Activity (Lymphocyte [17]): Active; fold change (FC) (GM15850 [18]): 3; Activity (Lymphocyte [6]): 33%; Activity (Lymphocyte [7]): inactive; Activity [8]: Non-toxic; Activity (Lymphocyte [9]): 130%; fold change (FC) (Lymphocyte [10]): 2.3; Activity (Lymphocyte [11]): 38%; Activity (Lymphocyte [19]): 80%; Activity (Lymphocyte [20]): 160%; Activity [21]: Active; Activity [22]: Active; Activity [23]: Active; Activity [24]: inactive; Activity [25]: inactive; Activity [26]: inactive
22 | O=C(CCCCCC(=O)Nc1ccccn1)Nc1ccccc1 | 140 | 2.6 | Non-toxic | –
23 | COc1ccccc1NC(=O)CCCCCCC(=O)Nc1ccccc1 | 470 | 1.8 | Non-toxic | –
